# Results from patent US20230133958A1, “COMPOUNDS USEFUL IN MODULATING EGFR AND PI3K” (Mekanistic Therapeutics LLC, priority 2021, published 2023).
# Experiments:
# [1] = Metabolic stability in human liver microsomes; type: in vitro ADME; settings: Human Liver Microsome (HLM)
# Description: (§1) Working solution: 5 µL of compound and control stock solution (10 mM in dimethyl sulfoxide (DMSO)) were diluted with 495 µL of acetonitrile (ACN) (intermediate solution concentration: 100 µM, 99% ACN)
# (§2) NADPH Cofactor Preparation: NADPH powder: β-Nicotinamide adenine dinucleotide phosphate reduced form, tetrasodium salt; NADPH 4 Na. The appropriate amount of NADPH powder was weighed and diluted into a 10 mM MgCl2 solution (working solution concentration: 10 unit/mL; final concentration in reaction system: 1 unit/mL)
# (§3) Liver Microsomes Preparation: The appropriate concentrations of microsome working solutions were prepared in 100 mM potassium phosphate buffer. Cold (4° C.) acetonitrile (ACN) containing 200 ng/mL tolbutamide and 200 ng/mL labetalol as internal standards (IS) was used as the stop solution
# (§4) Assay Procedure: Pre-warm empty ‘Incubation’ plates T60 and NCF60 for 10 minutes. Dilute liver microsomes to 0.56 mg/mL in 100 mM phosphate buffer. Transfer 445 µL microsome working solutions (0.56 mg/mL) into pre-warmed ‘Incubation’ plates T60 and NCF60, Then pre-incubate ‘Incubation’ plates T60 and NCF60 for 10 min at 37° C. with constant shaking. […]
# (§5) The biological stability of the compounds of the invention can be measured by determining its ½ life in the presence microsomes. […]
# [2] = Metabolic stability in mouse liver microsomes; type: in vitro ADME; settings: Mouse Liver Microsome (MLM)
# Description: as §1, §2, §3, §4, §5
structure (smiles),measurement,setting,value
"CS(=O)(=O)Nc1cc(-c2ccc3ncnc(Nc4cccc(Cl)c4F)c3c2)cnc1Cl [Compound 6, N-[2-chloro-5-[4-(3-chloro-2-fluoro-anilino)quinazolin-6-yl]-3-pyridyl] methanesulfonamide]",half-life at 1 µM,[1],10 to 100 min
same,half-life at 1 µM,[2],10 to 100 min
